Assays:
[1] = test system: fasted Wistar rats; assay: Gastric emptying of a phenol red-labelled methylcellulose meal in fasted naive rats (model for gastroparesis); type: in vivo, rat; settings: for potency in gastric emptying compared to metoclopramide, based on the different dose levels: dose-dependent, FIG. 2; for increase in gastric emptying relative to the vehicle control group: 15 min after meal
Description: To examine the effects of compounds of the invention in a model for gastroparesis, compounds were evaluated for possible effects on gastric emptying in fasted rats as described below.
GHRP-6 and test samples were dissolved in vehicle of 9% HPBCD/0.9% NaCl. Immediately following oral administration of methylcellulose (2%) containing phenol red (0.05%) (2 mL/rat), test substances or vehicle (9% HPBCD/0.9% NaCl) were each administered intravenously (i.v.) at a dosing volume of 5 mL/kg.
Test substances were each administered intravenously to a group of 5 O/N-fasted Wistar derived male rats weighing 200±20 g immediately after methylcellulose (2%) containing phenol red (0.05%) was administered orally at 2 mL/animal. The animals were then sacrificed 15 minutes later. The stomach was immediately removed, homogenized in 0.1 N NaOH (5 mL) and centrifuged. Following protein precipitation by 20% trichloroacetic acid (0.5 mL) and re-alkalization of the supernatant with 0.1 N NaOH, total phenol red remaining in the stomach was determined by a colorimetric method at 560 nm. A 30 percent or more (≧30%) increase in gastric emptying, detected as the decrease in phenol red concentration in the stomach relative to the vehicle control group, is considered significant.
• 1. To ascertain data for representative compounds 25 and 298 as prokinetic agents with potent effects on gastric emptying, a model for gastroparesis. Methods • 1. Overnight-fasted rats (male, Wistar, ˜200 g, N=5/group) were given a meal of methylcellulose (2%) by intragastric gavage. The meal was labeled with phenol red (0.05%). • 2. […] Animals were sacrificed 15 minutes later; the stomach was immediately removed and homogenized in 0.1 N NaOH and centrifuged. • 4. Total phenol red remaining in the stomach was quantified by a colorimetric method at 560 nm. • 5. A >30% increase in gastric emptying, detected based on the phenol red concentration in comparison to the control group, is considered significant. Results

[2] = test system: POI rats concurrently dosed with morphine; assay: Combination rat model of post-operative ileus and opioid-induced bowel dysfunction; type: in vivo
[3] = test system: rats dosed with morphine; assay: Rat model of opioid-induced bowel dysfunction (morphine-delayed gastric emptying and small intestinal transit); type: in vivo; settings: morphine 3 mg/kg s.c.
From the text: Opioid analgesics, such as morphine, are well known to delay gastrointestinal transit, which is a noted side effect for this class of drugs. (Greenwood-van Meerveld, B.; Gardner, C. J.; Little, P. J.; Hicks, G. A.; DeHaven-Hudkins, D. L. Preclinical studies of opioids and opioid antagonists on gastrointestinal function. Neurogastroenterol. Motil. 2004, 16, 46-53.) The clinical term for this syndrome is opioid-induced bowel dysfunction (OBD). The aim of this study was to determine whether test compounds can effectively reverse morphine-induced delayed gastric emptying and small intestinal transit in a rat model of opioid-induced bowel dysfunction.
• 1. Rats (male, Sprague-Dawley, 250-300 g, N=6-7/gp) were implanted with jugular vein catheters to accommodate dosing of test articles. • 2. Overnight-fasted rats were administered morphine by sub-cutaneous injection (3 mg/kg). • 3. After 60 minutes, rats were dosed (i.v. bolus) with vehicle, test compound (0.30, 1.0 mg/kg) or GHRP-6 (0.02 mg/kg) followed by intragastric gavage of ^99mTc methylcellulose (2%) meal. • 4. After 15 minutes, the rats were euthanized and the stomach and consecutive 10 cm segments of the intestine are isolated. Radioactivity (^99mTc) in each tissue isolate is measured as a means of measuring gastric emptying and small intestinal transit. • 5. One-way ANOVA, Dunnet's post-hoc statistical test was applied. • 6.
• 1. […] Methods • 1. Rats (male, Sprague-Dawley, 250-300 g) were implanted with jugular vein catheters to accommodate dosing of test articles. • 2. Overnight-fasted rats were administered morphine (3 mg/kg s.c.). • 3. […] After 15 min, the rats were euthanized and the stomach and consecutive 10 cm segments of the intestine are isolated. Radioactivity (^99mTc) in each tissue isolate was measured as a means of measuring the transit of the meal. • 5. Results

[4] = GHRP-6 0.02 mg/kg i.v., mean ± sem

C[C@@H]1CN[C@@H](C2CC2)C(=O)N(C)[C@H](C)C(=O)N[C@H](Cc2ccc(F)cc2)C(=O)NCCCc2ccccc2O1 [Compound 298]
potency in gastric emptying compared to metoclopramide, based on the different dose levels [1]: ~100 fold | gastric emptying ([2]; 0.1, 0.3, 1, 3 mg/kg i.v., FIG. 8): significantly accelerates | small intestinal transit ([2]; 0.1, 0.3, 1, 3 mg/kg i.v., FIG. 9): significantly accelerates | lowest dose level effective at restoring GI motility ([2]; combination of POI and OBD): 0.1 mg/kg

GHRP-6
increase in gastric emptying relative to the vehicle control group ([1]; 20 μg/kg i.v.): 40% | Geometric Center [3, 4]: 3.38 ± 0.76 | Intragastric Residue (%) [3, 4]: 0.48 ± 0.10%

CCC(C)[C@@H]1NCCOc2ccccc2CCCNC(=O)[C@@H](Cc2ccc(Cl)cc2)NC(=O)[C@@H](C)N(C)C1=O (stereo partly drawn) [Compound 25]
gastric emptying ([1]; 30 μg/kg): significant gastric emptying | increase in gastric emptying relative to the vehicle control group ([1]; 100 μg/kg i.v.): 39% | potency in gastric emptying compared to metoclopramide, based on the different dose levels [1]: ~100 fold

CCN(CC)CCNC(=O)c1cc(Cl)c(N)cc1OC [metoclopramide, reference compound]
increase in gastric emptying relative to the vehicle control group ([1]; 10 mg/kg i.v.): 41%

CN1CC[C@]23c4c5ccc(O)c4O[C@H]2[C@@H](O)C=C[C@H]3[C@H]1C5 [morphine]
gastric emptying and small intestinal transit ([3]; preliminary study): significantly delayed

— US8088733B2 (Tranzyme Pharma Inc., priority 2006, dated 2012)
